Like-named read-outs stand apart in the source and are kept apart here.
Legend:
[1] = biological target: GDP-bound KRAS wild-type protein (Homo sapiens, UniProt P01116); test: Binding to KRAS by surface plasmon resonance (SPR), Single Cycle Kinetics; conditions: SPR Single Cycle Kinetics, GDP-bound KRAS wild-type protein, 1:1 binding model
[2] = biological target: GDP-bound HRAS wild-type protein (Homo sapiens, UniProt P01112); test: Binding to HRAS by surface plasmon resonance (SPR), Single Cycle Kinetics; conditions: SPR KD ratio HRAS/KRAS, class symbols
[3] = tested on: human lung cancer strain NCI-H441;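 further: cell proliferation inhibition after four days measured by CellTiter-Glo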
[4] = biological target: GDP-bound NRAS wild-type protein (Homo sapiens, UniProt P01111); test: Binding to NRAS by surface plasmon resonance (SPR), Single Cycle Kinetics; conditions: SPR KD ratio NRAS/KRAS, class symbols
GDP-bound NRAS wild-type protein, sequence (P01111 whole entry): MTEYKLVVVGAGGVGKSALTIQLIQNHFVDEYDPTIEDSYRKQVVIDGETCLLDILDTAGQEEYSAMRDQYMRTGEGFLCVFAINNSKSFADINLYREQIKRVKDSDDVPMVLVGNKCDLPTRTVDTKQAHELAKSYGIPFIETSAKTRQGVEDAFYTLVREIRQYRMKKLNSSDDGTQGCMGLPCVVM

GDP-bound KRAS wild-type protein, sequence (P01116 whole entry): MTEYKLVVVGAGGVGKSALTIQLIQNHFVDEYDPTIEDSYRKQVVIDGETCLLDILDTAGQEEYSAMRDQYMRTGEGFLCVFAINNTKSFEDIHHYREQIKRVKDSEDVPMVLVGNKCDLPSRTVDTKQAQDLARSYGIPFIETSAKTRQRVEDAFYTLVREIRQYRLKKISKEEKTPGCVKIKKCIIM
GDP-bound HRAS wild-type protein, sequence (P01112 whole entry): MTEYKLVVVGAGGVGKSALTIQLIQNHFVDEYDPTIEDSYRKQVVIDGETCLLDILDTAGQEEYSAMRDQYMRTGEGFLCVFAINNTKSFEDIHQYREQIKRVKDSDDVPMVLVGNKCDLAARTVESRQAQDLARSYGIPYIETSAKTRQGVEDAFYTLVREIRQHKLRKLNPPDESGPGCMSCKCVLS

| SMILES | Kd ([1]; read-out: KRAS KD) [M] | HRAS/KRAS (ratio of KD value with respect to GDP-bound HRAS wild-type protein to KD value with respect to KRAS) [2] | IC50 [3] [nM] | NRAS/KRAS (ratio of KD value with respect to GDP-bound NRAS wild-type protein to KD value with respect to KRAS) [4] | Kd ([1]; KRAS KD (M)) [M] |
| --- | --- | --- | --- | --- | --- |
| CCC[C@H]1C(=O)N[C@@H]([C@@H](C)CC)C(=O)N(C)CC(=O)N(C)[C@H]2C/C=C\CCN(C2=O)[C@@H](Cc2ccc(C)cc2)C(=O)N(C)CC(=O)N[C@@H](CCc2cc(F)c(C(F)(F)F)c(F)c2)C(=O)N2C[C@H](OCC)C[C@H]2C(=O)NC2(CC(C)(C)C2)C(=O)N(C)[C@@H](CC2CCC2)C(=O)N(C)[C@H](C(=O)N(C)C)CC(=O)N1C [PP2751] | 8.5e-10 | A (a compound having 10 or more and less than 20 is denoted as A) | 39.3 | A (a compound having 10 or more and less than 20 is denoted as A) | – |
| CCCOC[C@H]1C(=O)N[C@@H]([C@@H](C)CC)C(=O)N(C)CC(=O)N(C)[C@H]2C/C=C\CCN(C2=O)[C@@H](Cc2ccc(C)cc2)C(=O)N(C)CC(=O)N[C@@H](CCc2cc(F)c(C(F)(F)F)c(F)c2)C(=O)N2C[C@H](OCC)C[C@H]2C(=O)NC2(CC(C)(C)C2)C(=O)N(C)[C@@H](CC2CCC2)C(=O)N(C)[C@H](C(=O)N(C)C)CC(=O)N1C [PP2752] | 1.2e-09 | A (a compound having 10 or more and less than 20 is denoted as A) | 70.3 | A (a compound having 10 or more and less than 20 is denoted as A) | – |
| CCC[C@H]1C(=O)N[C@@H]([C@@H](C)CC)C(=O)N(C)CC(=O)N(C)[C@H]2C/C=C\CCN(C2=O)[C@@H](Cc2ccc(C)cc2)C(=O)N(C)CC(=O)N[C@@H](CCc2ccc(C(F)(F)F)c(OC)c2)C(=O)N2C[C@H](OCC)C[C@H]2C(=O)NC2(CC(C)(C)C2)C(=O)N(C)[C@@H](CC2CCC2)C(=O)N(C)[C@H](C(=O)N(C)C)CC(=O)N1C [PP2753] | 9.7e-10 | B (a compound having 3 or more and less than 10 is denoted as B) | 52 | A (a compound having 10 or more and less than 20 is denoted as A) | – |
| CCC[C@H]1C(=O)N[C@@H]([C@@H](C)CC)C(=O)N(C)CC(=O)N(C)[C@H]2C/C=C\CCN(C2=O)[C@@H](Cc2ccc(C)cc2)C(=O)N(C)CC(=O)N[C@@H](CCc2ccc(Cl)c(Cl)c2)C(=O)N2C[C@H](OCC)C[C@H]2C(=O)NC2(CC(C)(C)C2)C(=O)N(C)[C@@H](CC2CCC2)C(=O)N(C)[C@H](C(=O)N(C)C)CC(=O)N1C [PP2755] | 5.6e-10 | A (a compound having 10 or more and less than 20 is denoted as A) | 35.7 | A (a compound having 10 or more and less than 20 is denoted as A) | – |
| CCC[C@H]1C(=O)N[C@@H]([C@@H](C)CC)C(=O)N(C2CC2)CC(=O)N(C)[C@H]2C/C=C\CCN(C2=O)[C@@H](Cc2ccc(C)cc2)C(=O)N(C)CC(=O)N[C@@H](CCc2ccc(Cl)c(Cl)c2)C(=O)N2C[C@H](OCC)C[C@H]2C(=O)NC2(CC(C)(C)C2)C(=O)N(C)[C@@H](CC2CCC2)C(=O)N(C)[C@H](C(=O)N(C)C)CC(=O)N1C [PP2761] | 2.8e-09 | A (a compound having 10 or more and less than 20 is denoted as A) | 68.4 | A (a compound having 10 or more and less than 20 is denoted as A) | – |
| CCOC[C@H]1C(=O)N[C@@H]([C@@H](C)CC)C(=O)N(C2CC2)CC(=O)N(C)[C@H]2C/C=C\CCN(C2=O)[C@@H](Cc2ccc(C)cc2)C(=O)N(C)CC(=O)N[C@@H](CCc2ccc(Cl)c(Cl)c2)C(=O)N2C[C@H](OCC)C[C@H]2C(=O)NC2(CC(C)(C)C2)C(=O)N(C)[C@@H](CC2CCC2)C(=O)N(C)[C@H](C(=O)N(C)C)CC(=O)N1C [PP2762] | 2.9e-09 | A (a compound having 10 or more and less than 20 is denoted as A) | 122 | A (a compound having 10 or more and less than 20 is denoted as A) | – |
| CCOC[C@H]1C(=O)N[C@@H]([C@@H](C)CC)C(=O)N(C)CC(=O)N(C)[C@H]2C/C=C\CCN(C2=O)[C@@H](Cc2ccc(C(F)(F)F)cc2)C(=O)N(C)CC(=O)N[C@@H](CCc2cc(F)c(C(F)(F)F)c(F)c2)C(=O)N2C[C@H](OCC)C[C@H]2C(=O)NC2(CC(C)(C)C2)C(=O)N(C)[C@@H](CC2CCC2)C(=O)N(C)[C@H](C(=O)N(C)C)CC(=O)N1C [PP2763] | 8.6e-10 | A (a compound having 10 or more and less than 20 is denoted as A) | 71.9 | A (a compound having 10 or more and less than 20 is denoted as A) | – |
| CCC[C@H]1C(=O)N[C@@H]([C@@H](C)CC)C(=O)N(C)CC(=O)N(C)[C@H]2C/C=C\CCN(C2=O)[C@@H](Cc2ccc(C(F)(F)F)cc2)C(=O)N(C)CC(=O)N[C@@H](CCc2ccc(C(F)(F)F)c(OC)c2)C(=O)N2C[C@H](OCC)C[C@H]2C(=O)NC2(CC(C)(C)C2)C(=O)N(C)[C@@H](CC2CCC2)C(=O)N(C)[C@H](C(=O)N(C)C)CC(=O)N1C [PP2764] | 8.5e-10 | A (a compound having 10 or more and less than 20 is denoted as A) | 55.8 | A (a compound having 10 or more and less than 20 is denoted as A) | – |
| CCOC[C@H]1C(=O)N[C@@H]([C@@H](C)CC)C(=O)N(C)CC(=O)N(C)[C@H]2C/C=C\CCN(C2=O)[C@@H](Cc2ccc(C(F)(F)F)cc2)C(=O)N(C)CC(=O)N[C@@H](CCc2ccc(C(F)(F)F)c(OC)c2)C(=O)N2C[C@H](OCC)C[C@H]2C(=O)NC2(CC(C)(C)C2)C(=O)N(C)[C@@H](CC2CCC2)C(=O)N(C)[C@H](C(=O)N(C)C)CC(=O)N1C [PP2765] | 7e-10 | A (a compound having 10 or more and less than 20 is denoted as A) | 180 | A (a compound having 10 or more and less than 20 is denoted as A) | – |
| CCC[C@H]1C(=O)N[C@@H]([C@@H](C)CC)C(=O)N(C)CC(=O)N(C)[C@H]2C/C=C\CCN(C2=O)[C@@H](Cc2ccc(C(F)(F)F)cc2)C(=O)N(C)CC(=O)N[C@@H](CCc2ccc(Cl)c(Cl)c2)C(=O)N2C[C@H](OCC)C[C@H]2C(=O)NC2(CC(C)(C)C2)C(=O)N(C)[C@@H](CC2CCC2)C(=O)N(C)[C@H](C(=O)N(C)C)CC(=O)N1C [PP2766] | 5.2e-10 | A (a compound having 10 or more and less than 20 is denoted as A) | 26 | A (a compound having 10 or more and less than 20 is denoted as A) | – |
| CCOC[C@H]1C(=O)N[C@@H]([C@@H](C)CC)C(=O)N(C)CC(=O)N(C)[C@H]2C/C=C\CCN(C2=O)[C@@H](Cc2ccc(C(F)(F)F)cc2)C(=O)N(C)CC(=O)N[C@@H](CCc2ccc(Cl)c(Cl)c2)C(=O)N2C[C@H](OCC)C[C@H]2C(=O)NC2(CC(C)(C)C2)C(=O)N(C)[C@@H](CC2CCC2)C(=O)N(C)[C@H](C(=O)N(C)C)CC(=O)N1C [PP2767] | 4.9e-10 | A (a compound having 10 or more and less than 20 is denoted as A) | 62.6 | A (a compound having 10 or more and less than 20 is denoted as A) | – |
| CCC[C@H]1C(=O)N[C@@H]([C@@H](C)CC)C(=O)N(C2CC2)CC(=O)N(C)[C@H]2C/C=C\CCN(C2=O)[C@@H](Cc2ccc(C(F)(F)F)cc2)C(=O)N(C)CC(=O)N[C@@H](CCc2cc(F)c(C(F)(F)F)c(F)c2)C(=O)N2C[C@H](OCC)C[C@H]2C(=O)NC2(CC(C)(C)C2)C(=O)N(C)[C@@H](CC2CCC2)C(=O)N(C)[C@H](C(=O)N(C)C)CC(=O)N1C [PP2768] | 5.5e-09 | A (a compound having 10 or more and less than 20 is denoted as A) | 120 | A (a compound having 10 or more and less than 20 is denoted as A) | – |
| CCC[C@H]1C(=O)N[C@@H]([C@@H](C)CC)C(=O)N(C)CC(=O)N(C)[C@H]2C/C=C\CCN(C2=O)[C@@H](Cc2ccc(C(F)(F)F)cc2)C(=O)N(C)CC(=O)N[C@@H](CCc2cc(Cl)c3c(ccn3C)c2)C(=O)N2C[C@H](OCC)C[C@H]2C(=O)NC2(CC(C)(C)C2)C(=O)N(C)[C@@H](C(CC)CC)C(=O)N(C)[C@H](C(=O)N(C)C)CC(=O)N1C [PP2896] | – | A (a compound having 10 or more and less than 20 is denoted as A) | 79.3 | A (a compound having 10 or more and less than 20 is denoted as A) | 2.8e-09 |
| CCO[C@@H]1C[C@H]2C(=O)NC3(CC(C)(C)C3)C(=O)N(C)[C@@H](C(CC)CC)C(=O)N(C)[C@H](C(=O)N(C)C)CC(=O)N(C)[C@H]3CCC/C=C/c4ccc(cc4)C[C@@H](C(=O)N(C)CC(=O)N[C@@H](CCc4cc(F)c(C(F)(F)F)c(F)c4)C(=O)N2C1)N1CC/C=C\C[C@@H](C1=O)N(C)C(=O)CN(C1CC1)C(=O)[C@H]([C@@H](C)CC)NC3=O [PP2955] | 1.4e-10 | A (a compound having 10 or more and less than 20 is denoted as A) | 7.7 | A (a compound having 10 or more and less than 20 is denoted as A) | – |

— patent US20240158446A1, “CYCLIC COMPOUND HAVING SELECTIVE INHIBITORY ACTION ON KRAS OVER HRAS AND NRAS” (CHUGAI SEIYAKU KABUSHIKI KAISHA, priority 2021, published 2024)
